Test results published in patent US7901675B2, “Method of using coenzyme Q10 to treat Huntington's disease” (U.S. Department of Veterans Affairs, priority 2004, dated 2011).

Tests used:
R6/2 mice [1] = test: Survival of R6/2 HD mice on oral CoQ10 in chow; assay type: in vivo
Method: There is substantial evidence that bioenergetic defects may play a role in the pathogenesis of HD. A possible therapy for diseases in which there is defective energy metabolism is to administer the mitochondrial cofactor coenzyme Q10(CoQ10).
(§1) The present invention is based, in part, on the discovery that increased level of CoQ10 appears to slow the progressive functional decline in […]. We orally administered CoQ10 at 400 mg/kg, and 1, 5, 10, and 20 g/kg in R6/2 mice starting at weaning in chow formulations.

R6/2 mice [2] = test: Disease phenotype in R6/2 HD mice (weight loss, motor deficits, grip strength, brain atrophy, huntingtin inclusions); assay type: in vivo; conditions: oral CoQ10 in chow
Method: as §1

[3] = oral administration, 400 mg/kg, previously demonstrated

COC1=C(OC)C(=O)C(C/C=C(\C)CC/C=C(\C)CC/C=C(\C)CC/C=C(\C)CC/C=C(\C)CC/C=C(\C)CC/C=C(\C)CC/C=C(\C)CC/C=C(\C)CCC=C(C)C)=C(C)C1=O [CoQ10, Coenzyme Q10]
neuroprotection (R6/2 mice [1]; [3]): neuroprotective
survival extension (R6/2 mice [1]; [3]): 14.5%
survival extension (R6/2 mice [1]; oral in chow from weaning, 5 g/kg (greatest extension), vs untreated R6/2 mice): 21.3%
survival in comparison to untreated R6/2 mice (R6/2 mice [1]; oral in chow from weaning, all doses (400 mg/kg, 1, 5, 10, 20 g/kg)): significantly extended survival at all doses
development of brain atrophy (R6/2 mice [2]): significantly delayed
development of grip strength deficit (R6/2 mice [2]): significantly delayed
development of huntingtin inclusions (R6/2 mice [2]): significantly delayed
development of motor deficits (R6/2 mice [2]): significantly delayed
development of weight loss (R6/2 mice [2]): significantly delayed
